Where “and” joins values, the source holds several entries; their conditions need not be identical. Equal values may be shown once.
Tested on: KRAS PDC multicell spheroid viability
Assay: Anticancer human tumor 825966-067-R-J1-PDC patient-derived colon carcinoma cell line growth inhibition [KRAS2]
Conditions: for viability, T/C: stronger effect = lower value
Procedure, shortened: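 Combination screen of spheroid viability in tumor-cell co-cultures with endothelial (HUVEC) and mesenchymal stem cell stroma. Each agent was tested in half-log dilutions, topping at clinical Cmax or at 10 microM without a known Cmax.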

[1] = curve of first compound, second compound 0.1 µM
[2] = curve of first compound, second compound 0.316 µM
[3] = curve of first compound, second compound 1 µM
[4] = curve of first compound, second compound 3.16 µM
[5] = curve of first compound, second compound 10 µM
[6] = second compound 0.1 µM, first compound 0.000316 µM
[7] = second compound 0.1 µM, first compound 0.001 µM
[8] = second compound 0.1 µM, first compound 0.00316 µM
[9] = second compound 0.1 µM, first compound 0.01 µM
[10] = second compound 0.1 µM, first compound 0.0316 µM
[11] = second compound 0.1 µM, first compound 0.1 µM
[12] = second compound 0.316 µM, first compound 0.000316 µM
[13] = second compound 0.316 µM, first compound 0.001 µM
[14] = second compound 0.316 µM, first compound 0.00316 µM
[15] = second compound 0.316 µM, first compound 0.01 µM
[16] = second compound 0.316 µM, first compound 0.0316 µM
[17] = second compound 0.316 µM, first compound 0.1 µM
[18] = second compound 1 µM, first compound 0.000316 µM
[19] = second compound 1 µM, first compound 0.001 µM
[20] = second compound 1 µM, first compound 0.00316 µM
[21] = second compound 1 µM, first compound 0.01 µM
[22] = second compound 1 µM, first compound 0.0316 µM
[23] = second compound 1 µM, first compound 0.1 µM
[24] = second compound 3.16 µM, first compound 0.000316 µM
[25] = second compound 3.16 µM, first compound 0.001 µM
[26] = second compound 3.16 µM, first compound 0.00316 µM
[27] = second compound 3.16 µM, first compound 0.01 µM
[28] = second compound 3.16 µM, first compound 0.0316 µM
[29] = second compound 3.16 µM, first compound 0.1 µM
[30] = second compound 10 µM, first compound 0.000316 µM
[31] = second compound 10 µM, first compound 0.001 µM
[32] = second compound 10 µM, first compound 0.00316 µM
[33] = second compound 10 µM, first compound 0.01 µM
[34] = second compound 10 µM, first compound 0.0316 µM
[35] = second compound 10 µM, first compound 0.1 µM
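Also: spheroids exposed to compounds for 7 days.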
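For viability, T/C in this document: 100% = DMSO vehicle control viability.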

Question: Which results are given for `CC(C)n1nc(-c2ccc3oc(N)nc3c2)c2c(N)ncnc21` + COc1cc2nc(C)nc(NC(C)c3cc(N)cc(C(F)(F)F)c3)c2cc1OC1CCOC1?
Answer: IC50 [1]: > 100 nM; IC50 [2]: > 100 nM; IC50 [3]: > 100 nM; IC50 [4]: > 100 nM; IC50 [5]: < 0.316 nM; viability, T/C [6]: 59.7%; viability, T/C [7]: 93.1%; viability, T/C [8]: 125%; viability, T/C [9]: 154%; viability, T/C [10]: 79%; viability, T/C [11]: 99.4%; viability, T/C [12]: 97.1%; viability, T/C [13]: 99%; viability, T/C [14]: 116%; viability, T/C [15]: 137%; viability, T/C [16]: 84%; viability, T/C [17]: 81.7%; viability, T/C [18]: 100%; viability, T/C [19]: 103%; viability, T/C [20]: 123%; viability, T/C [21]: 131%; viability, T/C [22]: 82.8%; viability, T/C [23]: 75.2%; viability, T/C [24]: 115%; viability, T/C [25]: 109%; viability, T/C [26]: 121%; viability, T/C [27]: 63.7%; viability, T/C [28]: 82.2%; viability, T/C [29]: 81.5%; viability, T/C [30]: 6.15%; viability, T/C [31]: 2.53%; viability, T/C [32]: 15.6%; viability, T/C [33]: 12.3%; viability, T/C [34]: 11.2%; viability, T/C [35]: 3.11%

Question: With `CN(C)C/C=C/C(=O)Nc1cc2c(Nc3ccc(F)c(Cl)c3)ncnc2cc1O[C@H]1CCOC1` + C=CC(=O)N1CCN(c2nc(=O)n(-c3c(C)ccnc3C(C)C)c3nc(-c4c(O)cccc4F)c(F)cc23)C(C)C1 as the molecule, how does the IC50 [1] read?
Answer: The IC50 was over 100 nM.

Question: What about the IC50 [2] of the same molecule?
Answer: The IC50 was over 100 nM.

Question: And the IC50 [3]?
Answer: Its IC50 is over 100 nM.

Question: And the IC50 [4]?
Answer: Its IC50 is over 100 nM.

Question: And the IC50 [5]?
Answer: Its IC50 is over 100 nM.

Question: What about the viability, T/C [6] of the same molecule?
Answer: The viability, T/C was 104%.

Question: What about the viability, T/C [7] of the same molecule?
Answer: The viability, T/C was 114%.

Question: And the viability, T/C [8]?
Answer: The viability, T/C was 110%.

Question: What about the viability, T/C [9] of the same molecule?
Answer: The viability, T/C was 101%.

Question: What about the viability, T/C [10] of the same molecule?
Answer: The viability, T/C was 94.5%.

Question: What about the viability, T/C [11] of the same molecule?
Answer: The viability, T/C was 106%.

Question: And the viability, T/C [12]?
Answer: Its viability, T/C is 97.8%.

Question: What about the viability, T/C [13] of the same molecule?
Answer: The viability, T/C was 106%.

Question: What about the viability, T/C [14] of the same molecule?
Answer: The viability, T/C was 91.8%.

Question: And the viability, T/C [15]?
Answer: Its viability, T/C is 101%.

Question: And the viability, T/C [16]?
Answer: The viability, T/C was 103%.

Question: What about the viability, T/C [17] of the same molecule?
Answer: Its viability, T/C is 117%.

Question: What about the viability, T/C [18] of the same molecule?
Answer: Its viability, T/C is 110%.

Question: What about the viability, T/C [19] of the same molecule?
Answer: Its viability, T/C is 101%.

Question: What about the viability, T/C [20] of the same molecule?
Answer: Its viability, T/C is 91.2%.

Question: And the viability, T/C [21]?
Answer: The viability, T/C was 112%.

Question: What about the viability, T/C [22] of the same molecule?
Answer: The viability, T/C was 99.3%.

Question: And the viability, T/C [23]?
Answer: The viability, T/C was 107%.

Question: And the viability, T/C [24]?
Answer: The viability, T/C was 98.8%.

Question: What about the viability, T/C [25] of the same molecule?
Answer: Its viability, T/C is 64.3%.

Question: And the viability, T/C [26]?
Answer: Its viability, T/C is 93.2%.

Question: And the viability, T/C [27]?
Answer: Its viability, T/C is 107%.

Question: And the viability, T/C [28]?
Answer: The viability, T/C was 89%.

Question: And the viability, T/C [29]?
Answer: The viability, T/C was 103%.

Question: And the viability, T/C [30]?
Answer: The viability, T/C was 86.4%.

Question: And the viability, T/C [31]?
Answer: Its viability, T/C is 73.5%.

Question: What about the viability, T/C [32] of the same molecule?
Answer: The viability, T/C was 94.9%.

Question: And the viability, T/C [33]?
Answer: The viability, T/C was 86.4%.

Question: And the viability, T/C [34]?
Answer: The viability, T/C was 83.5%.

Question: What about the viability, T/C [35] of the same molecule?
Answer: The viability, T/C was 84.1%.

Question: Which IC50 [1] does the source give for `CC(C)n1nc(-c2ccc3oc(N)nc3c2)c2c(N)ncnc21` + CNCc1ccccc1-c1csc(C(C)Nc2nc(C)nc3cc(OC)c(OC)cc23)c1 here?
Answer: Its IC50 is over 100 nM.

Question: What about the IC50 [2] of the same molecule?
Answer: Its IC50 is over 100 nM.

Question: And the IC50 [3]?
Answer: The IC50 was over 100 nM.

Question: And the IC50 [4]?
Answer: The IC50 was 1.92 nM.

Question: And the IC50 [5]?
Answer: Its IC50 is under 0.316 nM.

Question: And the viability, T/C [6]?
Answer: The viability, T/C was 126%.

Question: What about the viability, T/C [7] of the same molecule?
Answer: Its viability, T/C is 113%.

Question: What about the viability, T/C [8] of the same molecule?
Answer: Its viability, T/C is 159%.

Question: And the viability, T/C [9]?
Answer: The viability, T/C was 185%.

Question: What about the viability, T/C [10] of the same molecule?
Answer: The viability, T/C was 128%.

Question: What about the viability, T/C [11] of the same molecule?
Answer: Its viability, T/C is 154%.

Question: What about the viability, T/C [12] of the same molecule?
Answer: The viability, T/C was 117%.

Question: And the viability, T/C [13]?
Answer: Its viability, T/C is 150%.

Question: What about the viability, T/C [14] of the same molecule?
Answer: The viability, T/C was 172%.

Question: What about the viability, T/C [15] of the same molecule?
Answer: The viability, T/C was 136%.

Question: And the viability, T/C [16]?
Answer: The viability, T/C was 142%.

Question: And the viability, T/C [17]?
Answer: Its viability, T/C is 109%.

Question: What about the viability, T/C [18] of the same molecule?
Answer: Its viability, T/C is 131%.

Question: What about the viability, T/C [19] of the same molecule?
Answer: Its viability, T/C is 135%.

Question: And the viability, T/C [20]?
Answer: Its viability, T/C is 156%.

Question: What about the viability, T/C [21] of the same molecule?
Answer: The viability, T/C was 132%.

Question: And the viability, T/C [22]?
Answer: The viability, T/C was 76.4%.

Question: What about the viability, T/C [23] of the same molecule?
Answer: Its viability, T/C is 84.2%.

Question: And the viability, T/C [24]?
Answer: Its viability, T/C is 66.2%.

Question: What about the viability, T/C [25] of the same molecule?
Answer: The viability, T/C was 105%.

Question: And the viability, T/C [26]?
Answer: The viability, T/C was 22.9%.

Question: What about the viability, T/C [27] of the same molecule?
Answer: The viability, T/C was 1.2%.

Question: What about the viability, T/C [28] of the same molecule?
Answer: The viability, T/C was 12.4%.

Question: And the viability, T/C [29]?
Answer: Its viability, T/C is 2.02%.

Question: And the viability, T/C [30]?
Answer: Its viability, T/C is 0.21%.

Question: What about the viability, T/C [31] of the same molecule?
Answer: Its viability, T/C is 0.64%.

Question: And the viability, T/C [32]?
Answer: Its viability, T/C is 1.75%.

Question: What about the viability, T/C [33] of the same molecule?
Answer: The viability, T/C was 0.23%.

Question: What about the viability, T/C [34] of the same molecule?
Answer: The viability, T/C was 0.41%.

Question: What about the viability, T/C [35] of the same molecule?
Answer: Its viability, T/C is 0.41%.

Question: What does the source list for `C=CC(=O)N1CCN(c2nc(OCC3CCCN3C)nc3c2CCN(c2cccc4cccc(C)c24)C3)CC1CC#N` (centres undefined)?
Answer: viability, T/C (compound 0.1 µM): 87.5% [middle of 17 runs]; IC50 (compound alone, run of 08/19/2021): > 3160 nM; IC50 (compound alone, run of 08/26/2021): > 3160 nM; IC50 (compound alone, run of 09/02/2021): > 3160 nM and 2390 nM

Reference: PubChem BioAssay AID1963865 (Molecular Pharmacology Branch, DTP, NCI, 2024)
